Measured values published in the NIST ThermoML archive (doi:10.1021/acs.jced.9b00209).

Legend:
[1] = molar heat capacity at saturation pressure; settings: Liquid, Vacuum adiabatic calorimetry
[2] = Boiling temperature at pressure P; settings: Liquid, Ebulliometric method (Recirculating still)
[3] = 101.33 kPa, Liquid, Pycnometric method

CC(C)CCOC(=O)C(C)O (configuration not stated) [isopentyl 2-hydroxypropanoate]
Settings | Boiling temperature at pressure P [°C] | mass density [kg/m3] | molar heat capacity [J/K/mol]
[1], 288.15 K | – | – | 360.71
[1], 293.65 K | – | – | 362.52
[1], 298.15 K | – | – | 364.02
[1], 303.55 K | – | – | 365.85
[1], 308.95 K | – | – | 367.71
[1], 313.65 K | – | – | 369.34
[1], 318.45 K | – | – | 371.04
[1], 323.65 K | – | – | 372.9
[1], 328.25 K | – | – | 374.56
[1], 333.85 K | – | – | 376.6
[1], 338.75 K | – | – | 378.4
[1], 343.05 K | – | – | 380
[1], 348.55 K | – | – | 382.06
[1], 353.15 K | – | – | 383.8
[1], 358.45 K | – | – | 385.81
[1], 363.35 K | – | – | 387.69
[1], 368.05 K | – | – | 389.51
[1], 373.75 K | – | – | 391.72
[1], 378.85 K | – | – | 393.72
[1], 383.35 K | – | – | 395.5
[1], 388.65 K | – | – | 397.6
[1], 393.25 K | – | – | 399.44
[1], 398.45 K | – | – | 401.54
[1], 403.15 K | – | – | 403.44
[1], 408.65 K | – | – | 405.69
[1], 413.15 K | – | – | 407.54
[1], 418.85 K | – | – | 409.91
[1], 423.95 K | – | – | 412.04
[1], 428.45 K | – | – | 413.94
[1], 433.15 K | – | – | 415.95
[1], 438.55 K | – | – | 418.27
[1], 443.65 K | – | – | 420.49
[1], 448.15 K | – | – | 422.47
[1], 453.65 K | – | – | 424.92
[2], 4.5 kPa | 101.44 | – | –
[2], 8.6 kPa | 118.64 | – | –
[2], 13.8 kPa | 131.41 | – | –
[2], 18.4 kPa | 139.2 | – | –
[2], 22.8 kPa | 146.61 | – | –
[2], 27.9 kPa | 153.00 | – | –
[2], 33.2 kPa | 158.40 | – | –
[2], 38.6 kPa | 163.80 | – | –
[2], 42.9 kPa | 168.23 | – | –
[2], 48.2 kPa | 171.66 | – | –
[2], 52.3 kPa | 174.60 | – | –
[2], 57.6 kPa | 178.1 | – | –
[2], 62.3 kPa | 182.00 | – | –
[2], 69.2 kPa | 186.00 | – | –
[2], 72.7 kPa | 188.32 | – | –
[2], 77 kPa | 190.7 | – | –
[2], 82 kPa | 192.98 | – | –
[2], 87.2 kPa | 195.31 | – | –
[2], 91.4 kPa | 197.64 | – | –
[2], 95.7 kPa | 199.20 | – | –
[2], 100.7 kPa | 201.00 | – | –
[2], 110.3 kPa | 205.41 | – | –
[3], 288.15 K | – | 976 | –
[3], 293.65 K | – | 973.5 | –
[3], 298.15 K | – | 969.5 | –
[3], 303.15 K | – | 965 | –
[3], 308.15 K | – | 960.6 | –
[3], 315.65 K | – | 954.9 | –
[3], 320.15 K | – | 950 | –
[3], 326.15 K | – | 945.3 | –
[3], 331.65 K | – | 939.8 | –
[3], 336.15 K | – | 937.8 | –
[3], 341.45 K | – | 931.1 | –
[3], 346.15 K | – | 928 | –
[3], 350.95 K | – | 922.7 | –
[3], 355.65 K | – | 917 | –
[3], 361.65 K | – | 913.2 | –
[3], 367.15 K | – | 908 | –
[3], 373.15 K | – | 903 | –
[3], 378.45 K | – | 898.3 | –
[3], 383.45 K | – | 893 | –
[3], 390.65 K | – | 887.5 | –
[3], 397.15 K | – | 883.1 | –
[3], 404.35 K | – | 876.4 | –
[3], 410.85 K | – | 869.6 | –
[3], 417.05 K | – | 864.7 | –
[3], 420.45 K | – | 861 | –
[3], 424.75 K | – | 854.7 | –
[3], 428.15 K | – | 854.2 | –
[3], 434.25 K | – | 848.9 | –
[3], 441.75 K | – | 842.2 | –
[3], 448.55 K | – | 836 | –
[3], 453.15 K | – | 832 | –
